Here are results for two compounds from paper PMC12818745 (ACS Chemical Neuroscience, 2025).

The structures appear in SMILES notation. Where two headings read alike, the source gives them in different places.

Series [1] addresses T1, eqBChE (equine serum butyrylcholinesterase) (Equus caballus, UniProt P81908).
T1 construct: eqBChE (equine serum butyrylcholinesterase); from tissue; host or cells: equine serum
The experiment in a line: Cholinesterase inhibition assay (modified Ellman's method), eqBChE. In kind it is biochemical. The source says:
Compound series A and B were initially screened for their cholinesterase activity against eeAChE (Electrophorus electricus AChE) and eqBChE (equine serum butyrylcholinesterase), using an adaptation of the Ellman’s method. […]. […] Similarly, replacing the terminal triple bond in 7l with a nitrile group reduced its activity, while replacing the O-propargyl group with an N,N-dipropargyl group in 10 enhanced the inhibition of both enzymes, particularly BChE (Table ). The installation of an additional aryl ring in 7o further improved AChE inhibition, slightly increasing selectivity toward this enzyme. […]. […]. […]. The inhibitory activity of the synthesized compounds toward eeAChE and eqBChE was evaluated spectrophotometrically through a 96-well microplate modified Ellman’s method. The solutions of both enzymes were prepared as 0.025 U/mL in phosphate buffer at pH 7, from stock solutions of 5.05 U/mL and 7.50 U/mL, respectively. The stock solutions for the target compounds (0.1 M) were prepared in dimethyl sulfoxide (DMSO). […] The reaction mixture was prepared with 100 μL of the enzyme (eeAChE or eqBChE) and 50 μL of the test compound (or DMSO/water, not exceeding 0.2% of DMSO in the wells; i.e blank samples). After 5 min of the preincubation period at 37 °C, 50 μL of ATChI or BTChI and 50 μL of DTNB were added to each well, thus initiating the enzymatic reaction. The absorbance values were measured at 415 nm, for a total of 7.5 min, at every 2.5 min, using a microplate reader (Synergy multimode reader; BioTek). […]. All experiments were performed in triplicate.

For series [2], the target named is T2, P-glycoprotein (P-gp) (Homo sapiens, UniProt P08183).
T2 construct: endogenous in cells; host or cells: hMEC/D3 cells
As to the kind of experiment: Calcein-AM-assay in hMEC/D3 cells. In kind it is cell-based. The settings on record: 1, 10, 50 and 100 μM. As for the experimental part: To complement this approach and better understand whether these compounds may be substrates of such transporters, we next employed the calcein-AM-assay. This assay is particularly useful for assessing P-glycoprotein (P-gp), a major efflux transporter at the BBB that actively limits drug accumulation in the brain. To investigate potential interactions with P-gp, compounds 10, 11q-s were tested at concentrations of 1 μM, 10 μM, 50 μM and 100 μM, using the calcein-AM-assay in hMEC/D3 cells (Figure ). […] Therefore, these compounds are not expected to be P-gp substrates and may have favorable capacity to cross the BBB via passive diffusion, making them promising candidates for CNS drug development. […].
For all compounds tested, stock solutions were prepared in DMSO. Dilutions were then made with Krebs-Ringer buffer (KRB). […] Fluorescence was measured using a Tecan Infinite 200 Pro plate reader with λ excitation = 485 nm and λ emission = 535 nm. Each test compound was measured with n = 3, control and background were measured with n = 3. All fluorescence values were corrected by subtracting the background fluorescence. The increase in cellular fluorescence caused by a test compound was referred to the fluorescence of the control. […]

For series [3], the target named is AChE (Electrophorus electricus, UniProt O42275). The experiment in a line: Kinetic analysis (Lineweaver–Burk), AChE. It is filed as biochemical. The settings on record: Lineweaver–Burk plots, substrate 50–800 μM. As for the experimental part: (§1) Based on the computational predictions, derivatives 10 (series A) and 11r (series B) were initially expected to interact with both CAS and PAS of AChE and BChE. However, to better understand the actual mechanism of action of these compounds, kinetic studies were performed (Figure ). […].
(§2) […]. The enzymatic reactions and measurements were performed using the same assay conditions, as described above for the inhibition of both enzymes. All experiments were performed in triplicate. Linear regression analysis was performed with GraphPad Prism 8.0.2 (GraphPad Software Inc.).

In series [4] the target is T3, BChE (Equus caballus, UniProt P81908).
T3 construct: eqBChE (equine serum butyrylcholinesterase); from tissue; host or cells: equine serum
The experiment in a line: Kinetic analysis (Lineweaver–Burk), BChE. It is filed as biochemical. Conditions: Lineweaver–Burk plots, substrate 50–800 μM. As for the experimental part:
as §1, §2

Series [5] can be described thus: in vitro. The settings on record: for Prediction (penetration into the CNS): class from PAMPA-BBB P e; for Papp at 2.5 h: pig, PAMPA, pH 7.4. As for the experimental part:
To assess BBB permeability, a parallel artificial membrane permeability assay (PAMPA)-BBB was performed, which predicts passive BBB permeability using a brain lipid porcine membrane.
The prediction of the brain penetration was evaluated using a PAMPA-BBB. […] Next, 100 μL of these stock solutions were added to a solution of 1400 μL of EtOH and 3500 μL of PBS at pH 7.4, to reach 30% of EtOH concentration in the experiment. These solutions were filtered, using Filter PDVF membrane units (diameter 30 mm, pore size 0.45 μm, from Symta). After this, the acceptor 96-well microplate (Multiscreen, catalogue no. MAMCS9610, from Millipore) was filled with 180 μL of PBS/EtOH (70/30). […] After 5 min, 180 μL of each compound solution was added. 1–2 mg of each selected compound was dissolved in 1500 μL of EtOH and 3500 μL of PBS at pH 7.4, filtered, and then added to the donor 96-well plate to determine their ability to cross the brain barrier. After this, the donor plate was carefully put on the acceptor plate to form a “sandwich” and incubated for 2.5 h at 25 °C. During this period, the compounds diffused from the donor plate through the brain lipid membrane into the acceptor plate. Afterward, the donor plate was removed. A 96-well plate UV reader (Thermoscientific, Multiskan spectrum) was used to determine the concentration of compounds and commercial drugs in the acceptor and donor wells. Every sample was analyzed at three to five wavelengths, in three wells, and in two independent runs. […] Ten quality control compounds (previously mentioned) of known BBB permeability were included in each experiment to validate the analysis set.

Series [6] has as its target eeAChE (Electrophorus electricus AChE) (Electrophorus electricus, UniProt O42275). The experiment in a line: Cholinesterase inhibition assay (modified Ellman's method), eeAChE. It is filed as biochemical. The settings on record: for SI eeAChE: ratio eqBChE IC50/eeAChE IC50. Put shortly:
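Enzymes at 0.025 U/mL in phosphate buffer pH 7, preincubated 5 min at 37 °C with compound (DMSO ≤0.2%). Reaction started with ATChI or BTChI plus DTNB, absorbance at 415 nm read every 2.5 min over 7.5 min. Triplicate runs.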

eeAChE (Electrophorus electricus AChE), sequence (O42275 24-633): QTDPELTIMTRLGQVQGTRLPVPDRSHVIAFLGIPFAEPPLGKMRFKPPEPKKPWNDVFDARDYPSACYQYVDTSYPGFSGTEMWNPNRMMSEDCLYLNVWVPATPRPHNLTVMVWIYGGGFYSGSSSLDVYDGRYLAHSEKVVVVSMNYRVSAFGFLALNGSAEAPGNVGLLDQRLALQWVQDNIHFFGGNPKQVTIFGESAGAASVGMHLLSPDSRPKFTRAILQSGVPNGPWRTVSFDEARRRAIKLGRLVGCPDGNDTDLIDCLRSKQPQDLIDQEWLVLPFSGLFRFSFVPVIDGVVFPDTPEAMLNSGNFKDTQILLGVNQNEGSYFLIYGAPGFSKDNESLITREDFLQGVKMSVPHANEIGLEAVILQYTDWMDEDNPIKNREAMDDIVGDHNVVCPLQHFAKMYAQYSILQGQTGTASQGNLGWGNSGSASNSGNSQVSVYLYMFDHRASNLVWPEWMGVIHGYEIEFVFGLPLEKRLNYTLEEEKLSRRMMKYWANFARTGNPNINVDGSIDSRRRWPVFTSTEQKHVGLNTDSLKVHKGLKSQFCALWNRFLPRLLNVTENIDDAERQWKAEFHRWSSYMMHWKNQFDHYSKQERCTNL
AChE, sequence (O42275 24-633): as above
T3 sequence (P81908 whole entry): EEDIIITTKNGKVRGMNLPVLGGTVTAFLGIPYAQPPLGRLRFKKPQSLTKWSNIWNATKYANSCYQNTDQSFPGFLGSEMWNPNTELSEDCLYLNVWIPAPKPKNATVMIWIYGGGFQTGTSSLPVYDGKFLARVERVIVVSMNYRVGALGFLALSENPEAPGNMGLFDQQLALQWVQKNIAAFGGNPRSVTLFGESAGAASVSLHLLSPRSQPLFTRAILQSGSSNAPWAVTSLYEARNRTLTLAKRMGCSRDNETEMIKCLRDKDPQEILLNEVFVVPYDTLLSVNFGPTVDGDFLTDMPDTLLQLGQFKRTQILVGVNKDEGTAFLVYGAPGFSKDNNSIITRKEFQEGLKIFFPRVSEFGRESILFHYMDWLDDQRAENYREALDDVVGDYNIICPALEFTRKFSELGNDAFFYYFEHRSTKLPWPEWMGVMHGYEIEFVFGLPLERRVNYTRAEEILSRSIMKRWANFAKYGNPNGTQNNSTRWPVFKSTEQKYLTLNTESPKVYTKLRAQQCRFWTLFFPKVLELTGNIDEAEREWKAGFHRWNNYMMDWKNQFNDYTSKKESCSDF
T1 sequence (P81908 whole entry): as above
T2 sequence (P08183 whole entry): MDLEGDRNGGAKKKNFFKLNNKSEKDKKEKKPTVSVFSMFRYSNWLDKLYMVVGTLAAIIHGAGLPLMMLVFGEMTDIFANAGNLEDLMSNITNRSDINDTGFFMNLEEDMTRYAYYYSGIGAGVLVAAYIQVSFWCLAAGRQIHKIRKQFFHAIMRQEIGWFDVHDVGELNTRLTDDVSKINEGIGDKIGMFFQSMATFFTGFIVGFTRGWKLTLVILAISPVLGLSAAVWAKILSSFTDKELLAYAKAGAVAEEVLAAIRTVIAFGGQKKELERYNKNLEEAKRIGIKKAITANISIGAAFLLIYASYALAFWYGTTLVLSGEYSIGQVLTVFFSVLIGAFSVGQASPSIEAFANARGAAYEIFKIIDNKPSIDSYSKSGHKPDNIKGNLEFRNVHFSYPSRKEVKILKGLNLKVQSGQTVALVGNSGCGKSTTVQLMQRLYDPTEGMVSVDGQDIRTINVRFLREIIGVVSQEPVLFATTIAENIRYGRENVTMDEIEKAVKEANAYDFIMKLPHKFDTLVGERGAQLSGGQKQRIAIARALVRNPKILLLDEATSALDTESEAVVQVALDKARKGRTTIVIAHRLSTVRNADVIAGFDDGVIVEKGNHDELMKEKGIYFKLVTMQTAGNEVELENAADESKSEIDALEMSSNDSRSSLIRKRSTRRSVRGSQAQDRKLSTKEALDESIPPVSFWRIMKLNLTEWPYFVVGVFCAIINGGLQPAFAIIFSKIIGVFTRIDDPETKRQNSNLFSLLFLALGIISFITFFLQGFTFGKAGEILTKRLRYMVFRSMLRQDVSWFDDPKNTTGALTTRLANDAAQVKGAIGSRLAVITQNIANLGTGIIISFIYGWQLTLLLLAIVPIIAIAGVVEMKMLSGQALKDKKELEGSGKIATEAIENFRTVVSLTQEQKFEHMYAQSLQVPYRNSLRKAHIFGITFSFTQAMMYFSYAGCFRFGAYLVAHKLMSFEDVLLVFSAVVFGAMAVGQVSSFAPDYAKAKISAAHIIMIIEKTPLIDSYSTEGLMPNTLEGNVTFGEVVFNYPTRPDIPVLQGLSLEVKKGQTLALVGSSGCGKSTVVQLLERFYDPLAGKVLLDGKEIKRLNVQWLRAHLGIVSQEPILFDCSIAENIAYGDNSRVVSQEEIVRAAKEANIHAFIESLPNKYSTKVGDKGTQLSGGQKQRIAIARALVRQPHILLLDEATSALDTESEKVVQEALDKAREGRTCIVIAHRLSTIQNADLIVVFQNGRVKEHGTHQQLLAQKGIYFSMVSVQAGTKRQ

As for `C#CCN(CC#C)c1ccccc1/C=C/c1cc(=O)c2ccccc2o1` [Compound 10, (E)-2-{2-[Di(prop-2-yn-1-yl)amino]styryl}-4H-chromen-4-one], the IC50 in series [1] came out at 5.9 ± 0.4 µM. For the same compound, the “Interaction with P-gp (intracellular calcein fluorescence)” value in series [2] is given as “clear inhibitory effect on P-gp activity”. For the same compound, in series [3], the “Type of inhibition, AChE” value is on record as “reversible competitive inhibition”. The “Type of inhibition, BChE” value in series [4] is “reversible competitive inhibition”. In series [5], the “Prediction (penetration into the CNS)” value is reported as “CNS+ (High BBB permeation predicted (CNS+) P e > 3.93)” and the Papp at 2.5 h came out at 11.6 ± 3.39 ×10⁻⁶ cm/s. The IC50 in series [6] (mean ± SEM, n = 3, n.a = nonactive, IC50 determined only if inhibition higher than 50% at 20 μM) was 8.7 ± 0.5 µM. Also, the “SI eeAChE” value in series [6] is 0.68.

On to `COc1ccc2c(=O)c3cc4c(cc3oc2c1)-c1cc(Cl)ccc1OC4` [Compound 11r, 2-Chloro-11-methoxy-6H,8H-chromeno[3,4-b]xanthen-8-one], for which the IC50 in series [1] is 6.3 ± 0.6 µM. Also, in series [2], the “Interaction with P-gp (intracellular calcein fluorescence)” value is listed as “unlikely to be actively effluxed from the brain”. Moreover, the “Type of inhibition, AChE” value in series [3] is given as “reversible competitive inhibition”. The “Type of inhibition, BChE” value in series [4] is given as “reversible competitive inhibition”. Also, in series [5], the “Prediction (penetration into the CNS)” value is given as “CNS+ (High BBB permeation predicted (CNS+) P e > 3.93)” and the apparent permeability (Papp) at 2.5 h came to 7.12 ± 0.89 ×10⁻⁶ cm/s. Besides, in series [6], the IC50 is 2.1 ± 0.9 µM and the “SI eeAChE” value stood at 3.00.
